Source: patent US12152012B2, “BRAG2 inhibitors and applications thereof” (CENTRE NATIONAL DE LA RECHERCHE SCIENTIFIQUE, priority 2018, dated 2024)
“Also recorded” adds a separate entry of the source.

Experiments:
[1] = Stability in aqueous solution / PBS (mass spectroscopy); type: physicochemical; details: for Chemical stability in aqueous solution: after a few days in aqueous solution; for Stability in PBS by mass spectroscopy: dissolved in PBS, within 72 hours
BRAG2 (BRAG2^Sec7PH) = biological target: T1, BRAG2 (BRAG2^Sec7PH) (Homo sapiens, UniProt Q6DN90); assay: Nucleotide exchange kinetics on liposomes, activation of myristoylated Arf1; type: biochemical
T1 construct: human BRAG2^Sec7 (390-594) and BRAG2^Sec7PH (390-811); made in house
Protocol: The effect of Bragsin1 on the GEF efficiency of representative human ArfGEFs was evaluated by fluorescence kinetics using highly purified recombinant Arf GTPases and ArfGEFs. In a first series of assays, the Sec7 domains of BIG1, a Golgi ArfGEF, and of ARNO, EFA6a and BRAG2, which function at the plasma membrane, were used. When tested in solution, Bragsin1 had no effect on the activation of Arf1 by any of these Sec7 domains (FIGS. 2a and 14). Separately, we reconstituted the activation of myristoylated Arf1 by the same ArfGEFs on liposomes using ArfGEF constructs that contain a membrane-binding domain (DCB-HUS domain for BIG1, PH domains for the other GEFs). […] BRAG2 activates several Arf isoforms, including the plasma membrane-located Arf6 isoform. […] Bragsin1 and Bragsin2 have the same IC50 towards BRAG2 ([…]) according to dose-response analysis, confirming that Bragsin1 and Bragsin2 can be used interchangeably (FIG. 2d). The specific inhibition of BRAG2 by Bragsin in vitro predicts that BRAG2 silencing by siRNA should yield the same phenotype as treatment by the small molecule. Silencing of BRAG2 induced the redistribution of TGN46 into tubular or punctate structures, which phenocopied the effects induced by Bragsin (FIGS. 2e, 17 and 18). […] Silencing of ARNO, which is located at the plasma membrane, had no effect on TGN46 distribution. Overexpression of BRAG2-mCherry rescued the dispersion of the TGN46 structure induced by Bragsin, which is consistent with the silencing experiments (FIG. 2f). Bragsin is a specific inhibitor of the ArfGEF BRAG2 in vitro and in cells according to these experiments. These oexperiments identify a mechanism of inhibition that requires the membrane to manifests itself.
Bovine Δ17Arf1 and human Δ13Arf6, full-length myristoylated Arf1 and Arf6, human BRAG2^Sec7 (390-594) and BRAG2^Sec7PH (390-811), human EFA6^Sec7 (527-727) and EFA6^Sec7PHCt (527-1024), ARNO^Sec7 (50-256), BIG1^Sec7 (691-889), BIG1^DcbHusSec7 (2-888) and ARNO^Sec7PH (50-399) were expressed and purified as in (Benabdi, S. et al. Family-wide Analysis of the Inhibition of Arf Guanine Nucleotide Exchange Factors with Small Molecules: Evidence of Unique Inhibitory Profiles. Biochemistry 56, 5125-5133 (2017)) and references therein. BRAG2^Sec7PH mutants were purified as the wild type protein. Purification of human full-length Rac1 carrying a 6xHis tag in C-terminus and human TRIO^DH1PH1 (1232-1550) was described in (Peurois, F. et al. Characterization of the activation of small GTPases by their GEFs on membranes using artificial membrane tethering. Biochem J 474, 1259-1272 (2017)).
Lipids (of natural origin) were from Avanti Polar Lipids, except NBD-PE from Sigma. Liposomes were prepared as described in (Aizel, K. et al. Integrated conformational and lipid-sensing regulation of endosomal ArfGEF BRAG2. PLOS Biol 11, e1001652 (2013)) and extruded at 0.2 μm. For the Arf GEF specificity studies, liposomes contained 48% phosphatidylcholine (PC), 20% phosphatidylethanolamine (PE), 30% phosphatidylserine (PS) and 2% phosphatidylinositol-4,5-bisphosphate (PIP2). For Rac activation assay, liposomes contained 43% PC, 20% PE, 10% PS, 20% cholesterol, 2% PIP2, 5% NiNTA lipids and 0.2% NBD-PE. To exclude aggregation or disruption of the liposomes, their size distribution was controlled before and after experiments by dynamic light scattering as described in (Benabdi, S. et al. Biochemistry 56, 5125-5133 (2017)). Dose-response and flotation assays were carried out with liposomes containing 37.9% PC, 20% PE, 20% PS, 2% PIP2, 20% cholesterol and 0.1% NBD-PE. Flotation assays were carried out as in 18.
Nucleotide exchange kinetics were monitored by tryptophan fluorescence with excitation/emission wavelengths of 292/340 nm using a Cary Eclipse fluorimeter (Varian) at 37° C. and under continuous stirring as described in ^50,51. […]

T1 sequence (Q6DN90 512-933): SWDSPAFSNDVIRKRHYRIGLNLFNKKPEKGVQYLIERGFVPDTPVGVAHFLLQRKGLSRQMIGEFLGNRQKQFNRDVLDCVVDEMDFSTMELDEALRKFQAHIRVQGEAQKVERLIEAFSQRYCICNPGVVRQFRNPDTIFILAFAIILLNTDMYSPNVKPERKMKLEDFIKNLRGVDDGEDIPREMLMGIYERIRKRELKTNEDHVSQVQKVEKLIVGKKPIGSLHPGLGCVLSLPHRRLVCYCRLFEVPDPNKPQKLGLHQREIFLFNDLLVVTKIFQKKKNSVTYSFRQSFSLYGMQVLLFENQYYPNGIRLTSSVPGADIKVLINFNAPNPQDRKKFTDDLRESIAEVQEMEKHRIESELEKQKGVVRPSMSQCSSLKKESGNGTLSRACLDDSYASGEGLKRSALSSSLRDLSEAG

| Chemical stability in aqueous solution [1] | Stability in PBS by mass spectroscopy [1] | Activity towards BRAG2 after storage (BRAG2 (BRAG2^Sec7PH); stock solution in DMSO kept for several months) | Structure (SMILES) | Inhibition of BRAG2 in the presence of liposomes (BRAG2 (BRAG2^Sec7PH); 50 μM compound vs DMSO, myristoylated Arf1, liposomes) | Inhibition of BRAG2 on liposomes that contain PIP2 compared to PS as sole negatively charged lipid (BRAG2 (BRAG2^Sec7PH); lipid composition of liposomes varied) |
| --- | --- | --- | --- | --- | --- |
| chemically unstable | slowly decomposed | lost activity | Cc1ccc2oc(C(F)(F)F)cc(=O)c2c1[N+](=O)[O-] [Bragsin1, 6-methyl-5-nitro-2-(trifluoromethyl)-4H-chromen-4-one] | strongly inhibited; also recorded: specifically inhibits | – |
| resistant to hydration and stable | remained stable | – | COc1ccc2oc(C(F)(F)F)cc(=O)c2c1[N+](=O)[O-] [Bragsin2, 6-methoxy-5-nitro-2-(trifluoromethyl)-4H-chromen-4-one] | – | more efficiently; also recorded: stronger |
